In one data set the target is T1, HIV-1-protease (Human immunodeficiency virus type 1 group M subtype B, UniProt P04585).
T1 construct: made in house
Nature of the data set: Inhibition of the proteolytic activity of HIV-1-protease (icosapeptide substrate, HPLC). The class given is biochemical. As to conditions: icosapeptide RRSNQVSQNYPIVQNIQGRR 122 μM, 20 mM MES buffer pH 6.0, one hour at 37° C.; read-out: IC50 (concentration at which half the maximum inhibition of HIV-1-protease is found). The protocol: In that procedure the inhibition of the action of HIV-1- protease (preparation: see S. Billich et al., J. Biol. Chem. 263 (34), 17905-17908 (1990)) is measured in the presence of the icosapeptide […] (a synthetic substrate of HIV-1-protease, prepared by peptide synthesis in accordance with known procedures (see J. Schneider et al., Cell 54, 363-368 (1988)), which contains as substrate analogue one of the cleavage sites of the gag-precursor protein (natural substrate of HIV-1-protease). That substrate and its cleavage products are analysed by high performance liquid chromatography (HPLC).
The test compound is dissolved in dimethyl sulfoxide. The enzymatic test is carried out by adding suitable dilutions of the inhibitor in 20 mM β-morpholinoethanesulfonic acid (MES) buffer pH 6.0 to the test mixture. That mixture consists of the above-mentioned icosapeptide (122 μM) in 20 mM MES buffer pH 6.0. 100 μl are used per test batch. The reaction is started by the addition of […] of HIV-1-protease solution and is stopped after one hour's incubation at 37° C. by the addition of 10 μl of 0.3M HClO4. After centrifugation of the sample at 10000×g for 5 minutes, 20 μl of the resulting supernatant are applied to a 125×4.6 mm Nucleosil® Cl8-5 μ HPLC column (reversed phase material supplied by Macherey & Nagel, Duren, FRG, based on silica gel that has been charged with C18 alkyl chains). The uncleaved icosapeptide and its cleavage products are eluted from the column by means of the following gradient: 100% eluant 1→50% eluant 1+50% eluant 2 (eluant 1:10% acetonitrile, 90% H2 O, 0.1% trifluoroacetic acid (TFA); eluant 2:75% acetonitrile, 25% H2 O, 0.08% TFA) over 15 minutes, throughflow rate 1 ml/min. The quantification of the eluted peptide fragments is carried out by measuring the peak height of the cleavage product at 215 nm.

For the next data set, the system named is HIV-1/MN. Kind of data set: Inhibition of virus replication in MT-2 cells infected with HIV-1/MN (reverse transcriptase activity in supernatant). The conditions noted are these: 4 days' incubation. It counts as cell-based. From the text:
In a further test it can be shown that the title compound from Example 5 protects cells normally infected by HIV from such an infection or at least slows down such an infection. For this test, MT-2 cells infected with HIV-1/MN are used. MT-2 cells have been transformed with HTLV-1 (a virus causing leukaemia) and are a continuous producer thereof; they are therefore especially sensitive to the cytopathogenic effect of HIV. MT-2 cells can be obtained via the AIDS Research and Reference Reagent Program, Division of AIDS, NIAID, NIH from Dr. Douglas Richman (see J. Biol. Chem. 263, 5870-5875 (1988) and also Science 229, 563-566 (1985)). The MT-2 cells are cultured in RPMI 1640 medium (Gibco, Scotland; RPMI comprises an amino acid mixture without glutamine) supplemented with 10% heat-inactivated foetal calf serum, glutamine and standard antibiotics. […] The titre of the HIV-1/MN virus stock solution (determined by titration onto MT-2 cells) is 4.2×10^5 TClD50/ml (TClD50=Tissue Culture Infective Dose=dose that infects 50% of the MT-2 cells). […] Prior to the test, 0.1% (v/v) [alpha-^32 P]dTTP is added to aliquots of the solution in order to establish a radioactivity of 10 μCl/ml.
After mixing, the plate is incubated for 2 h at 37° C. […] The radioactivity on the filters is measured in a Matrix Packard 96-well counter (Packard, Zurich, Switzerland). […]

Data set [1] in a line: Plasma levels in mice after oral administration. It counts as in vivo, female BALB/c mice. The conditions noted are these: 120 mg/kg. The protocol:
In order to determine its pharmacokinetics, the title compound from Example 5 is dissolved in dimethyl sulfoxide (DMSO) in a concentration of 240 mg/ml. The resulting solution is diluted 1:20 (v/v) with 20% (w/v) aqueous hydroxypropyl-β-cyclodextrin solution in order to obtain a concentration of the test compound of 12 mg/ml. The resulting solution is treated briefly with ultrasound and administered orally to female BALB/c mice (Bomholtgarden, Copenhagen, Denmark) by artificial tube feeding at a dose of 120 mg/kg. At fixed times (for example 30, 60, 90, 120 min) after administration, mice are sacrificed and the […] stored in heparinised test tubes. The blood is centrifuged (12000×g, 5 min) and the plasma removed. […] The precipitate is pelleted by centrifugation (12000×g, 5 min), and the concentration of the test compound is determined by reversed phase high performance liquid chromatography (HPLC).
The HPLC analysis of the samples obtained in accordance with the method described above is carried out on a 125×4.6 mm Nucleosil® C18 column (reversed phase material supplied by Macherey & Nagel, Duren, Germany, based on silica gel derivatised with hydrocarbon radicals having 18 carbon atoms), using a 2 cm long preliminary column containing the same column material. […] The test compound is detected by UV absorption measurement at 255 nm. […]

Turning to `COC(=O)N[C@H](C(=O)N[C@@H](Cc1ccccc1)[C@@H](O)CN(Cc1ccc(-c2nnn(C)n2)cc1)NC(=O)[C@@H](NC(=O)OC)C(C)(C)C)C(C)(C)C` [1-[4-(2-methyl-2H-tetrazol-5-yl)-phenyl]-4(S)-hydroxy-5(S)-2,5-bis[N-(N-methoxycarbonyl-(L)-tert-leucyl)amino]-6-phenyl-2-axahexane], the IC50 on HIV-1-protease was determined as 51 nM.
The same measure, in the same setting: for `COC(=O)N[C@H](C(=O)N[C@@H](Cc1ccccc1)[C@@H](O)CN(Cc1ccc(-c2nccs2)cc1)NC(=O)[C@@H](NC(=O)OC)C(C)(C)C)C(C)(C)C` [1-[4-(thiazol-2-yl)-phenyl]-4(S)-hydroxy-5(S)-2,5-bis[N-(N-methoxycarbonyl-(L)-tert-leucyl)amino]-6-phenyl-2-azahexane] the value was 33 nM.
`COC(=O)N[C@H](C(=O)N[C@@H](Cc1ccccc1)[C@@H](O)CN(Cc1ccc(-c2ccccn2)cc1)NC(=O)[C@@H](NC(=O)OC)C(C)(C)C)C(C)(C)C` [Example 5, 1-[4-(Pyridin-2-yl)-phenyl]-4(S)-hydroxy-5(S)-2,5-bis[N-(N-methoxycarbonyl-(L)-tert-leucyl)-amino]-6-phenyl-2-azahexane]: the IC50 on HIV-1-protease was determined as 26 nM. Besides, the “ED90 (concentration that reduces the RT activity by 90%; 90% inhibition of virus replication)” value in the data set on HIV-1/MN turned out to be 3 nM. Besides, the results for the plasma level in data set [1] (30 min after administration) and in data set [1] (90 min after administration) were 21.83 µM and 31.76 µM, respectively.

For the origin of these results see patent US5912352A, “Intermediates for the preparation of peptide analogues” (Novartis Finance Corporation, priority 1996, dated 1999).
